From publication PMC3872227 (Chemistry & biology, 2013)

Molecular target: α1(A322D)β2γ2 GABAA receptor (α1 subunit) (Homo sapiens, UniProt P14867+P47870, P14867:A322D)
Test: whole-cell patch-clamp peak current at […] GABA, after SAHA treatment
Type: cell-based

α1(A322D)β2γ2 GABAA receptor (α1 subunit), sequence (P14867 28-456 A322D): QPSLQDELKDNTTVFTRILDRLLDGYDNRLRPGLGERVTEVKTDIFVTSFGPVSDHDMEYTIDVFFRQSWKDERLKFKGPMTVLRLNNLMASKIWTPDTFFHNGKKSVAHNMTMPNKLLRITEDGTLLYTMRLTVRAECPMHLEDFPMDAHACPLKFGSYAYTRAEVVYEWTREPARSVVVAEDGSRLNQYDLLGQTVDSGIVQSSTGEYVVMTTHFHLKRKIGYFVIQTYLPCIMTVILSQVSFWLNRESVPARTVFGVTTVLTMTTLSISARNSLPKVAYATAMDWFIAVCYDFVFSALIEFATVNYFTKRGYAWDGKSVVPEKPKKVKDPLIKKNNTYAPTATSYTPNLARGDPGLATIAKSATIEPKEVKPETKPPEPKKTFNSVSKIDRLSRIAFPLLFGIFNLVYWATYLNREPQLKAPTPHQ
α1(A322D)β2γ2 GABAA receptor (α1 subunit), sequence (P47870 26-512): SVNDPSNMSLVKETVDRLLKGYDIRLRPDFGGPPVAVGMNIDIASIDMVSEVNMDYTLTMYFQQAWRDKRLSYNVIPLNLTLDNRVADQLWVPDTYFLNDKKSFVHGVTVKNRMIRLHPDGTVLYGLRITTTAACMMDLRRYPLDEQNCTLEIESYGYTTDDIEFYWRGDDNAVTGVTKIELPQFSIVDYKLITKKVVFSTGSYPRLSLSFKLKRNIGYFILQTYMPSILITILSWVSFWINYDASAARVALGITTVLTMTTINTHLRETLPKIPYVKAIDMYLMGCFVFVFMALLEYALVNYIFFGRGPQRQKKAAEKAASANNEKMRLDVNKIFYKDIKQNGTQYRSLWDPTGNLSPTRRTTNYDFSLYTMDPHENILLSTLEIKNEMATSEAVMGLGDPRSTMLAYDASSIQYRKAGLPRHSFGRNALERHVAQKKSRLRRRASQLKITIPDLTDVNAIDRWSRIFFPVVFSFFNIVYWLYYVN
α1(A322D)β2γ2 GABAA receptor (α1 subunit), sequence (P18507 40-475 partner): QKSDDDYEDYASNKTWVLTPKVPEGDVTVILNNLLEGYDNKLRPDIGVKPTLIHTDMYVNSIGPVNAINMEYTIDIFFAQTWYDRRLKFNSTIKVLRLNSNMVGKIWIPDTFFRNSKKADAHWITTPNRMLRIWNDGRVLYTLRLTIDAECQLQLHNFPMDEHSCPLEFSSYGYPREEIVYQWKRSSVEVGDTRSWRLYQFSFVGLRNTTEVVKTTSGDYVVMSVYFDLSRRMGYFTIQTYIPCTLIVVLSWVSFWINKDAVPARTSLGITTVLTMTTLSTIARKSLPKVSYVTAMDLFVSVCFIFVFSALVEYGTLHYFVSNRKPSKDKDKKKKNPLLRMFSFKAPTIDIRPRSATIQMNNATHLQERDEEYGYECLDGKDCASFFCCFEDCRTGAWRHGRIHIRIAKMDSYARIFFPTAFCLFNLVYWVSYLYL

## NCCCC(=O)O [GABA]
  whole-cell patch-clamp peak current at 3 mM GABA, after SAHA treatment: 14 ± 3 pA
